{"source": "paper PMC3814362", "about": "(Nucleic Acids Research, 2013)", "key": {"[1]": {"molecular_target": "T1, HflX-ND1 (Escherichia coli, UniProt P25519)", "T1 sequence (P25519 1-120)": "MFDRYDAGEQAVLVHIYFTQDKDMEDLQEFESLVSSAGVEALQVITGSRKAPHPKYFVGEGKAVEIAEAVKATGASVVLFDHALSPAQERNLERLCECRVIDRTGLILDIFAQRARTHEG", "assay": "mant fluorescence emission", "type": "binding", "conditions": "labelled compound; 5 µM protein, 1 µM mant-ATP, pH 8.0, 5 mM MgCl2"}, "[2]": {"molecular_target": "T2, HflX-FL; HflX-WT (EcHflX) (Escherichia coli, UniProt P25519)", "T2 sequence (P25519 1-426)": "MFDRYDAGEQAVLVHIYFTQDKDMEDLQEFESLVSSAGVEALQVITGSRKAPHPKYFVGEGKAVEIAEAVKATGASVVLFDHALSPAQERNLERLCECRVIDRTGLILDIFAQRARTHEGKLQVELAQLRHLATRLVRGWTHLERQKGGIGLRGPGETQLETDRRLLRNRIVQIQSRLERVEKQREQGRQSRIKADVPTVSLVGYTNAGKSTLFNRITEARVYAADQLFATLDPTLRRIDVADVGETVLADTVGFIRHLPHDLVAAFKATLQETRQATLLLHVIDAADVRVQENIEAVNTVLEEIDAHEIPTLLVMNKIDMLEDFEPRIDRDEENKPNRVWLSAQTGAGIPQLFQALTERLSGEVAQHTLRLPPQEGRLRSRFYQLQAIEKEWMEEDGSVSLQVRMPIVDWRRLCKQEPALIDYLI", "assay": "mant fluorescence emission", "type": "binding", "conditions": "labelled compound; 5 µM protein, 1 µM mant-ATP, pH 8.0, 5 mM MgCl2"}}}
{"compound": "CNc1ccccc1C(=O)O[C@H]1[C@@H](O)[C@H](n2cnc3c(N)ncnc32)O[C@@H]1COP(=O)(O)OP(=O)(O)OP(=O)(O)O", "note": "[mant-ATP]", "values": [{"measurement": "mant fluorescence emission (ex 355 nm)", "setting": "[1]", "value": "HflX-ND1, like the full-length protein, binds mant-ATP"}, {"measurement": "mant fluorescence emission (ex 355 nm)", "setting": "[2]", "value": "HflX-ND1, like the full-length protein, binds mant-ATP"}]}
